The source of these data is PubChem BioAssay (NCI).

The structures appear in SMILES notation.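 Five concentrations, 48 hours, 96-well plates. TGI marks complete inhibition of growth.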

Test systems include SNB-19 CNS; BT-549 breast; KM12 colon; OVCAR-4 ovarian; TK-10 renal; SK-MEL-5 melanoma; NCI-H226 lung; A549 NSCLC; T-47D breast; SF-295 CNS; HCC-2998 colon; CAKI-1 renal; DU-145 prostate; NCI/ADR-RES ovarian; A498 renal; NCI-H460 lung; SK-MEL-28 melanoma; HL-60(TB) leukemia; CCRF-CEM leukemia.
Experiment in all cases: NCI tumour cell line growth inhibition, 48 h

`N#CCCN(CCN(C(=O)Nc1ccccc1)c1ccccc1)C(=O)Nc1ccccc1`: the TGI with SNB-19 CNS, in the experiment on BT-549 breast, in the experiment with KM12 colon, in the experiment on OVCAR-4 ovarian, in the experiment with TK-10 renal and with SK-MEL-5 melanoma was more than 100 µM in each case. Further, the TGI in the experiment on NCI-H226 lung is more than 100 µM; with A549 NSCLC it was more than 100 µM; with T-47D breast, more than 100 µM; in the experiment on SF-295 CNS it was more than 100 µM; in the experiment with HCC-2998 colon, more than 100 µM; in the experiment on CAKI-1 renal it was more than 63.1 µM. Further, the TGI in the experiment on DU-145 prostate was more than 100 µM; in the experiment on NCI/ADR-RES ovarian, more than 100 µM; in the experiment on A498 renal, more than 100 µM; in the experiment with NCI-H460 lung, more than 100 µM; with SK-MEL-28 melanoma it was more than 100 µM; in the experiment with HL-60(TB) leukemia it was 34.7 µM. In addition, the TGI in the experiment with CCRF-CEM leukemia stood at 47.7 µM.
As for `C[C@]12[C@@H]3CC[C@H]1[C@@H](OC(=O)Nc1cc([N+](=O)[O-])cc([N+](=O)[O-])c1)C(=O)N2CC3`, the TGI with SNB-19 CNS, in the experiment on BT-549 breast, in the experiment on KM12 colon, in the experiment on OVCAR-4 ovarian, with TK-10 renal and in the experiment with SK-MEL-5 melanoma was more than 100 µM in each case. Also, the TGI with NCI-H226 lung, in the experiment on A549 NSCLC, in the experiment with T-47D breast, in the experiment with SF-295 CNS, with HCC-2998 colon and in the experiment on CAKI-1 renal was more than 100 µM in each case. Further, the TGI with DU-145 prostate, in the experiment with NCI/ADR-RES ovarian, with A498 renal, with NCI-H460 lung, with SK-MEL-28 melanoma and in the experiment with HL-60(TB) leukemia was more than 100 µM throughout. Besides, the TGI in the experiment on CCRF-CEM leukemia was more than 100 µM.
For `COc1ccc(C(=O)/C=C/c2ccc(OCC(=O)N3CCN(c4ccccc4)CC3)cc2)cc1`, the TGI in the experiment with SNB-19 CNS is 65.1 µM; in the experiment with BT-549 breast it was more than 77.3 µM; in the experiment with KM12 colon it was more than 100 µM; in the experiment with OVCAR-4 ovarian, more than 100 µM; in the experiment on TK-10 renal it was 89.2 µM; in the experiment with SK-MEL-5 melanoma, more than 85.1 µM. The TGI in the experiment with NCI-H226 lung was more than 100 µM; in the experiment with A549 NSCLC, more than 100 µM; in the experiment on T-47D breast, more than 100 µM; in the experiment on SF-295 CNS it was 84.7 µM; in the experiment with HCC-2998 colon, more than 100 µM; in the experiment on CAKI-1 renal, more than 100 µM. The TGI in the experiment with DU-145 prostate is more than 100 µM; with NCI/ADR-RES ovarian it was more than 100 µM; with A498 renal it was more than 93.9 µM; in the experiment with NCI-H460 lung it was more than 100 µM; with SK-MEL-28 melanoma, more than 100 µM; in the experiment on HL-60(TB) leukemia, more than 67.3 µM. Further, the TGI with CCRF-CEM leukemia is more than 100 µM.
For `CCOC(=O)/C=C(/C(=O)OCC)n1ccc(=O)n(/C(=C/C(=O)OCC)C(=O)OCC)c1=O`, the TGI in the experiment on SNB-19 CNS turned out to be 38.3 µM; in the experiment on BT-549 breast it was 30.2 µM; with KM12 colon, 33.9 µM; in the experiment on OVCAR-4 ovarian, 30.6 µM; with TK-10 renal, 17.6 µM; in the experiment on SK-MEL-5 melanoma, 28.6 µM. The TGI with NCI-H226 lung was determined as 18.9 µM; in the experiment with A549 NSCLC, 32.7 µM; with T-47D breast, 15.9 µM; in the experiment with SF-295 CNS, 55.1 µM; in the experiment with HCC-2998 colon, 35 µM; in the experiment with CAKI-1 renal it was 3.23 µM. Moreover, the TGI with DU-145 prostate is 34.9 µM; in the experiment with NCI/ADR-RES ovarian, 55.3 µM; with A498 renal it was 38.8 µM; in the experiment on NCI-H460 lung it was 34.3 µM; in the experiment with SK-MEL-28 melanoma it was 27.9 µM; with HL-60(TB) leukemia it was 2.91 µM. The compound further came in with a TGI in the experiment on CCRF-CEM leukemia of 3.53 µM.
Take `Cc1cc(NS(=O)(=O)c2ccc(Nc3c4ccccc4nc4ccc(C(=O)Nc5ccc(S(N)(=O)=O)cc5)cc34)cc2)no1`: the TGI with SNB-19 CNS, with BT-549 breast, with KM12 colon, in the experiment on OVCAR-4 ovarian, in the experiment with TK-10 renal and in the experiment on SK-MEL-5 melanoma was more than 100 µM in each case. In addition, the TGI in the experiment with NCI-H226 lung, in the experiment with A549 NSCLC, in the experiment on T-47D breast, in the experiment with SF-295 CNS, with HCC-2998 colon and in the experiment on CAKI-1 renal was more than 100 µM each time. The TGI in the experiment with DU-145 prostate, with NCI/ADR-RES ovarian, in the experiment with A498 renal, in the experiment with NCI-H460 lung, in the experiment on SK-MEL-28 melanoma and in the experiment on HL-60(TB) leukemia was more than 100 µM in each case. Further, the TGI in the experiment on CCRF-CEM leukemia was more than 100 µM.
In the case of `COC(=O)[C@@H]1C[C@H]([Se]c2ccccc2)CN1C(=O)OCc1ccccc1`, the TGI was more than 100 µM in the experiment with SNB-19 CNS; 60.7 µM in the experiment on BT-549 breast; more than 100 µM in the experiment with KM12 colon; more than 100 µM with OVCAR-4 ovarian; more than 100 µM in the experiment on TK-10 renal; 30.6 µM in the experiment on SK-MEL-5 melanoma. In addition, the TGI in the experiment on NCI-H226 lung, in the experiment on A549 NSCLC, in the experiment on T-47D breast, with SF-295 CNS, in the experiment with HCC-2998 colon and in the experiment with CAKI-1 renal was more than 100 µM in each case. Also, the TGI in the experiment with DU-145 prostate was more than 100 µM; in the experiment on NCI/ADR-RES ovarian it was more than 100 µM; with A498 renal it was more than 100 µM; in the experiment on NCI-H460 lung it was 86.1 µM; in the experiment with SK-MEL-28 melanoma, 69.2 µM; in the experiment on HL-60(TB) leukemia it was 66 µM. The same compound returned a TGI in the experiment with CCRF-CEM leukemia of more than 100 µM.
In the case of `COc1cc2cc(C(=O)N3CC(CCl)c4ccccc43)[nH]c2c(OC)c1OC` (stereo unspecified), the TGI in the experiment on SNB-19 CNS, with BT-549 breast, in the experiment with KM12 colon, in the experiment with OVCAR-4 ovarian, with TK-10 renal and with SK-MEL-5 melanoma was more than 100 µM each time. Moreover, the TGI in the experiment on NCI-H226 lung is more than 100 µM; in the experiment on A549 NSCLC it was more than 100 µM; with T-47D breast, more than 89.4 µM; in the experiment on SF-295 CNS, more than 100 µM; in the experiment with HCC-2998 colon, more than 100 µM; with CAKI-1 renal, more than 100 µM. The TGI with DU-145 prostate is more than 100 µM; in the experiment with NCI/ADR-RES ovarian, more than 100 µM; in the experiment with A498 renal, more than 100 µM; with NCI-H460 lung, more than 57.4 µM; in the experiment on SK-MEL-28 melanoma, more than 100 µM; in the experiment with HL-60(TB) leukemia, more than 100 µM. For the same compound, in the experiment with CCRF-CEM leukemia, the TGI was more than 100 µM.
Take `O=[N+]([O-])/C(C(Cl)=C(Cl)Cl)=C(/Sc1ccccc1)N1CCCCC1`: the TGI was more than 100 µM with SNB-19 CNS; more than 100 µM in the experiment on BT-549 breast; more than 100 µM in the experiment with KM12 colon; more than 100 µM with OVCAR-4 ovarian; more than 100 µM in the experiment with TK-10 renal; more than 88.1 µM with SK-MEL-5 melanoma. In addition, the TGI in the experiment on NCI-H226 lung, with A549 NSCLC, with T-47D breast, in the experiment with SF-295 CNS, in the experiment on HCC-2998 colon and in the experiment with CAKI-1 renal was more than 100 µM throughout. The TGI was more than 100 µM in the experiment with DU-145 prostate; more than 100 µM with NCI/ADR-RES ovarian; more than 100 µM with A498 renal; more than 100 µM in the experiment with NCI-H460 lung; more than 100 µM in the experiment with SK-MEL-28 melanoma; more than 26.8 µM in the experiment on HL-60(TB) leukemia. The compound also yielded a TGI with CCRF-CEM leukemia of more than 100 µM.
For the compound `COC(=O)c1ccccc1/C=C1\Cc2cc(C)c(C)cc2C1=O`, the TGI in the experiment with SNB-19 CNS is more than 100 µM; in the experiment on BT-549 breast, more than 100 µM; in the experiment on KM12 colon it was more than 100 µM; in the experiment with OVCAR-4 ovarian, more than 100 µM; with TK-10 renal, 86.6 µM; in the experiment on SK-MEL-5 melanoma, more than 100 µM. For the same compound, the TGI with NCI-H226 lung, in the experiment on A549 NSCLC, in the experiment with T-47D breast, with SF-295 CNS, in the experiment with HCC-2998 colon and in the experiment with CAKI-1 renal was more than 100 µM throughout. Besides, the TGI with DU-145 prostate, with NCI/ADR-RES ovarian, in the experiment on A498 renal, in the experiment on NCI-H460 lung, in the experiment with SK-MEL-28 melanoma and with HL-60(TB) leukemia was more than 100 µM each time. This compound also had a TGI with CCRF-CEM leukemia of more than 100 µM.
